Experimental data as given in patent US12281119B2, “Imidazo[2,1-f][1,2,4]triazin-4-amine derivatives as TLR7 agonist” (BEIGENE, LTD., priority 2019, dated 2025).

Columns and labels:
Type in all cases: cell-based
human TLR7 [1] = target: T1, human TLR7 (Homo sapiens, UniProt Q9NYK1); experiment: TLR7 stimulation determined using HEK-Blue Detection; parameters: expressed in transfected cells; host or cells: HEK293 (HEK-Blue hTLR7); conditions: HEK-Blue hTLR7 cells, HEK-Blue Detection (A77-A124), 16 hr, relative to Resiquimod maximum
T1 sequence (Q9NYK1 27-1049): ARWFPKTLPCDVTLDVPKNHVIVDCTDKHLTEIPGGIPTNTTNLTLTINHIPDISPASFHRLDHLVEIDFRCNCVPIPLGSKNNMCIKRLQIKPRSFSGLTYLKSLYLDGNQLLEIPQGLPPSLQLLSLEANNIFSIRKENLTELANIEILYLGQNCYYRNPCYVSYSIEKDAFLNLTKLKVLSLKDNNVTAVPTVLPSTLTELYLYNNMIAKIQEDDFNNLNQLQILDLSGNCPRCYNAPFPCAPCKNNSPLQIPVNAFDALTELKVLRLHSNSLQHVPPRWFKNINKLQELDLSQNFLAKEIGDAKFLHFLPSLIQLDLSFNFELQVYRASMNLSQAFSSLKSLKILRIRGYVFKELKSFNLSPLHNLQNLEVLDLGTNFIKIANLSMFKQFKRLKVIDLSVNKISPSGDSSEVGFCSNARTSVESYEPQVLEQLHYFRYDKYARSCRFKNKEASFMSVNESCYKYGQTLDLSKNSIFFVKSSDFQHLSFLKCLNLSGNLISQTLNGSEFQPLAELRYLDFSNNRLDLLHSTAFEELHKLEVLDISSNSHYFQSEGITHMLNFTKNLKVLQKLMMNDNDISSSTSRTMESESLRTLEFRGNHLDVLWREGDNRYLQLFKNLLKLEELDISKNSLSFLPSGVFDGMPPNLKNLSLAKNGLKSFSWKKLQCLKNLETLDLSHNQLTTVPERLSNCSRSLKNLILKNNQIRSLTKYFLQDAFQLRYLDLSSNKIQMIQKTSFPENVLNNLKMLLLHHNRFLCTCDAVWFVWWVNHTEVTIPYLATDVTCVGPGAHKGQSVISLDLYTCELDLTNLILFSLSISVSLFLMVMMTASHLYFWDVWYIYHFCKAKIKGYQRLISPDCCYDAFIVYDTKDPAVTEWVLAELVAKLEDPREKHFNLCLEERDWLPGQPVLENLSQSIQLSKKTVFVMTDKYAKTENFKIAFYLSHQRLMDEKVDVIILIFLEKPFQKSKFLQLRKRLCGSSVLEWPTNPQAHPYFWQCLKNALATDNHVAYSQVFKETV
Description: TLR7 Stimulation Determined Using HEK-Blue Detection
This assay was designed for studying the stimulation of human TLR7 protein in HELK-Blue hTLR7 tool cell line by monitoring the activation of NF-κB. HEK-Blue hTLR7 cells were obtained by co-transfection of the hTLR7 gene and an optimized secreted embryonic alkaline phosphatase (SLAP) reporter gene into HEK293 cells. The SLAP reporter gene was placed under the control of the IFN-β minimal promoter fused to five NF-κB and AP-1-binding sites. Stimulation with a TLR7 ligand activates NF-κB and AP-1 which induce the expression of SLAP. Levels of SLAP can be easily determined with HEK-Blue Detection, a cell culture medium that allows for real-time detection of SLAP. HLK-Blue Detection contains all the nutrients necessary for cell growth and a specific SLAP color substrate. The hydrolysis of the substrate by SLAP produces a purple/blue color that can be measured with a spectrophotometer.
When growing to 50-80%0 confluency, HLK-Blue hTLR7 cells were plated into 96-well plate (costar 3599) at a density of 40000 cells/well. Then compounds were added with serial dilutions over 10 points with a 0.04 nM-10 μM final concentration range in 0.1% DMSO/BLK-Blue Detection. The plates were then incubated for 16 hr at 37° C. in […] and vortex for 30s before measurement. The optical density at 620-655 nm was read on BMG PHLRAstar FSX instrument. The EC50 for each compound was determined by calculating the percentages of the maximum activation identified with Resiquimod.

human TLR 8 protein = target: T2, human TLR 8 protein (Homo sapiens, UniProt Q9NR97); experiment: TLR8 stimulation determined using HEK-Blue Detection; conditions: HEK-Blue hTLR8 cells, 16 hr, relative to Resiquimod or Motolimod maximum
T2 construct: expressed in transfected cells; host or cells: HEK293 (HEK-Blue hTLR8)
T2 sequence (Q9NR97 27-1041): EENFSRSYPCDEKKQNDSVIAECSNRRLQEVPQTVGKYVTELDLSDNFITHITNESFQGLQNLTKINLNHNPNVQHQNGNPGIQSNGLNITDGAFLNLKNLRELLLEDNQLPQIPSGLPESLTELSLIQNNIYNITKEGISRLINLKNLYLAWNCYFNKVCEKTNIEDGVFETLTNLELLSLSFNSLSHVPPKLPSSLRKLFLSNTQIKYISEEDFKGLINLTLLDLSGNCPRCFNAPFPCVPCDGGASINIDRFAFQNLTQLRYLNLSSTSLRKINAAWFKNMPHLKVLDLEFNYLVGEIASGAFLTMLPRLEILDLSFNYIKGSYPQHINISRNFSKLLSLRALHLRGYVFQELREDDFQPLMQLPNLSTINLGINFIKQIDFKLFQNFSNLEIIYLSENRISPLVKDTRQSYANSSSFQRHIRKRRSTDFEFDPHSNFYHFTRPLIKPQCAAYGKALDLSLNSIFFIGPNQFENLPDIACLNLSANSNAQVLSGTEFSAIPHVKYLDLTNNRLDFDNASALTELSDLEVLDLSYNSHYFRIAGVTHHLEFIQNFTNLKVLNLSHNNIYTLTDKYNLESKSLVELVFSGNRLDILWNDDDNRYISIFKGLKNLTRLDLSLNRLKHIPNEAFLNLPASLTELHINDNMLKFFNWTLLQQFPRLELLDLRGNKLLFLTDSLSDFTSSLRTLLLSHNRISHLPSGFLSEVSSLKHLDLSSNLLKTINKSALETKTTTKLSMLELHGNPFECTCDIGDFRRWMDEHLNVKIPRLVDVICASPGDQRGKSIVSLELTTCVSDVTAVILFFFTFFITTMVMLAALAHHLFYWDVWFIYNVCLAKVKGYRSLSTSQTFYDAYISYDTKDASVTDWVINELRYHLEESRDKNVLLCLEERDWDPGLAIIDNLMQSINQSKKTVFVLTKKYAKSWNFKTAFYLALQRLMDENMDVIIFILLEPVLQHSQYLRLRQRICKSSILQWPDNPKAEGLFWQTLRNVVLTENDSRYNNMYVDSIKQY
Description: TLR8 Stimulation Determined Using HEK-Blue Detection
This assay was designed for studying the stimulation of human TLR 8 protein in HEK-Blue hTLR8 tool cell line by monitoring the activation of NF-1B. HEK-Blue hTLR8 cells were obtained by co-transfection of the hTLR8 gene and an optimized secreted embryonic alkaline phosphatase (SEAP) reporter gene into HEK293 cells. The SEAP reporter gene was placed under the control of the IFN-β minimal promoter fused to five NF-κB and AP-1-binding sites. Stimulation with a TLR 8 ligand activates NF-κB and AP-1 which induce the expression of SEAP. Levels of SEAP can be easily determined with HEK-Blue Detection, a cell culture medium that allows for real-time detection of SEAP. HEK-Blue Detection contains all the nutrients necessary for cell growth and a specific SEAP color substrate. The hydrolysis of the substrate by SEAP produces a purple/blue color that can be measured with a spectrophotometer.
When growing to 50-80% confluency, HEK-Blue hTLR7/8 cells were plated into 96-well plate (costar 3599) at a density of 40000 cells/well. Then compounds were added with serial dilutions over 10 points with a 1 nM-10 uM final concentration range in 0.1% DMSO/HEK-Blue Detection. The plates were then incubated for 16 hr at 37° C. in 5% CO2. The optical density at 620-655 nm was read on BMG PHERAstar FSX instrument. The EC50 for each compound was determined by calculating the percentages of the maximum activation identified with Resiquimod or Motolimod.

human TLR7 [2] = target: T1, human TLR7; experiment: HEK293-Blue hTLR7 reporter assay (QUANTI-BLUE, SEAP readout); parameters: host or cells: HEK293 (HEK-Blue-hTLR7); conditions: HEK-Blue-hTLR7 cells, QUANTI-BLUE assay (A1-A76), 24 hrs
Outline: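 Cells seeded at 4×10^4 per well in DMEM/10% heat-inactivated FBS, settled 5 h, then exposed to increasing compound amounts for 24 h at 37° C. Secreted SEAP in supernatant read with Quanti-blue at 620-655 nm after 10-30 min at 37° C.; EC50 from sigmoidal dose-response fit.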

## CCCC(CCO)Oc1nc(N)c2ncc(Cc3cc(F)c(OCCNC)cc3F)n2n1 (single isomer, unassigned) [Compound A112, (R or S)-3-((4-amino-7-(2,5-difluoro-4-(2-(methylamino)ethoxy)benzyl)imidazo[2,1-f][1,2,4]triazin-2-yl)oxy)hexan-1-ol]
Human TLR7 [1]
  EC50: 0.93 nM
Human TLR 8 protein
  EC50: 9 nM

## CCCC(CCO)Oc1nc(N)c2ncc(Cc3ccc(OCCNC)cc3)n2n1 (single isomer, unassigned) [Compound A92, (R or S) 3-((4-amino-7-(4-(2-(methylamino)ethoxy)benzyl)imidazo[2,1-f][1,2,4]triazin-2-yl)oxy)hexan-1-ol]
Human TLR7 [1]
  EC50: 122 nM
Human TLR 8 protein
  EC50: 872 nM

## CCCC(CCO)Oc1nc(N)c2ncc(Cc3c(F)cc(OCCNC)cc3F)n2n1 (single isomer, unassigned) [Compound A123, (R or S)-3-((4-amino-7-(2,6-difluoro-4-(2-(methylamino)ethoxy)benzyl)imidazo[2,1-f][1,2,4]triazin-2-yl)oxy)hexan-1-ol]
Human TLR7 [1]
  EC50: 0.7 nM
Human TLR 8 protein
  EC50: 15 nM

## CCCC(CCO)Oc1nc(N)c2ncc(Cc3ccc(OCCCNC)nc3)n2n1 (centres unmarked) [Compound A86, 3-((4-amino-7-((6-(3-(methylamino)propoxy)pyridin-3-yl)methyl)imidazo[2,1-f][1,2,4]triazin-2-yl)oxy)hexan-1-ol]
Human TLR7 [1]
  EC50: 57.7 nM
Human TLR 8 protein
  EC50: 541 nM

## CCCC(CCO)Oc1nc(N)c2ncc(Cc3ccc(OCCNC)c(F)c3)n2n1 (centres unmarked) [Compound A91, 3-((4-amino-7-(3-fluoro-4-(2-(methylamino)ethoxy)benzyl)imidazo[2,1-f][1,2,4]triazin-2-yl)oxy)hexan-1-ol]
Human TLR7 [1]
  EC50: 2.1 nM
Human TLR 8 protein
  EC50: 15 nM

## CCCC(CC)Oc1nc(N)c2ncc(Cc3ccc(OCCNC)nc3)n2n1 (centres unmarked) [Compound A84, 2-(hexan-3-yloxy)-7-((6-(2-(methylamino)ethoxy)pyridin-3-yl)methyl)imidazo[2,1-f][1,2,4]triazin-4-amine]
Human TLR7 [1]
  EC50: 6.9 nM
Human TLR 8 protein
  EC50: 192 nM

## CCC[C@H](C)Oc1nc(N)c2ncc(Cc3ccc(OCCNC)cc3)n2n1 [Compound A100, (S)-7-(4-(2-(methylamino)ethoxy)benzyl)-2-(pentan-2-yloxy)imidazo[2,1-f][1,2,4]triazin-4-amine]
Human TLR7 [1]
  EC50: 15 nM
Human TLR 8 protein
  EC50: 195 nM

## CCCC(CCO)Oc1nc(N)c2ncc(Cc3cccc(OCCNC)c3)n2n1 (single isomer, unassigned) [Compound A104, (R or S)-3-((4-amino-7-(3-(2-(methylamino)ethoxy)benzyl)imidazo[2,1-f][1,2,4]triazin-2-yl)oxy)hexan-1-ol]
Human TLR7 [1]
  EC50: 10 nM
Human TLR 8 protein
  EC50: 24 nM

## CCCC(CCO)Oc1nc(N)c2ncc(Cc3ccc(CCCNC)cc3)n2n1 (single isomer, unassigned) [Compound A110, (R or S)-3-((4-amino-7-(4-(3-(methylamino)propyl)benzyl)imidazo[2,1-f][1,2,4]triazin-2-yl)oxy)hexan-1-ol]
Human TLR7 [1]
  EC50: 4 nM
Human TLR 8 protein
  EC50: 65 nM

## CNCCOc1ccc(Cc2cnc3c(N)nc(OCC4CCCO4)nn23)cn1 (centres unmarked) [Compound A88, 7-((6-(2-(methylamino)ethoxy)pyridin-3-yl)methyl)-2-((tetrahydrofuran-2-yl)methoxy)imidazo[2,1-f][1,2,4]triazin-4-amine]
Human TLR7 [1]
  EC50: > 10000 nM
Human TLR 8 protein
  EC50: > 10000 nM

## CNCCOc1ccc(Cc2cnc3c(N)nc(OCC4CCOC4)nn23)cn1 (centres unmarked) [Compound A80, 7-((6-(2-(methylamino)ethoxy)pyridin-3-yl)methyl)-2-((tetrahydrofuran-3-yl)methoxy)imidazo[2,1-f][1,2,4]triazin-4-amine]
Human TLR7 [1]
  EC50: 446 nM
Human TLR 8 protein
  EC50: > 10000 nM

## CCCC(CCO)Oc1nc(N)c2ncc(Cc3ccc(OCCNC)c(F)c3)n2n1 (single isomer, unassigned) [Compound A106, (S or R)-3-((4-amino-7-(3-fluoro-4-(2-(methylamino)ethoxy)benzyl)imidazo[2,1-f][1,2,4]triazin-2-yl)oxy)hexan-1-ol]
Human TLR7 [1]
  EC50: 1.6 nM
Human TLR 8 protein
  EC50: 12 nM

## CCCCOc1nc(N)c2ncc(Cc3ccc(CN4CCC(N)CC4)cc3)n2n1 [Compound A43, 7-(4-((4-aminopiperidin-1-yl)methyl)benzyl)-2-butoxyimidazo[2,1-f][1,2,4]triazin-4-amine]
Human TLR7 [2]
  EC50: 822 nM
Human TLR 8 protein
  EC50: 255 nM
